From the supplement of paper PMC10307832

How the values were obtained:
AZD1208 = compound: N[C@@H]1CCCN(c2c(/C=C3\SC(=O)NC3=O)cccc2-c2ccccc2)C1 [AZD1208]; test: relative viability (nuclei count vs DMSO), 5 days (fraction); higher = more cells survive
How it was run: (§1)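 Vehicle-anchored 1536-well plates of lung cancer cell lines, held overnight at 37 °C, were pinned with five library-drug doses (not always all listed) spaced by √10. No medium change followed over the next 5 days, after which the cells were fixed, permeabilised and Hoechst-stained together and imaged at 4×. Nuclei were counted with MetaXpress, and viability is treated-well nuclei over vehicle-well nuclei, taken as a median across plates. Plates passed with control CV below 25% and at least one doubling.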

XMD14-99 = compound: CN1CCN(CC1)C2=CC(=C(C=C2)NC3=NC(=C(S3)C(=O)C4=C(C=CC=C4Cl)Cl)N)OC [XMD14-99]; test: as above
How it was run: as §1

| Cell Line | relative viability (AZD1208; 0.08 µM) | relative viability (AZD1208; 0.253 µM) | relative viability (AZD1208; 0.8 µM) | relative viability (AZD1208; 2.53 µM) | relative viability (AZD1208; 8 µM) | relative viability (XMD14-99; 0.08 µM) | relative viability (XMD14-99; 0.8 µM) | relative viability (XMD14-99; 2.53 µM) | relative viability (XMD14-99; 8 µM) |
| --- | --- | --- | --- | --- | --- | --- | --- | --- | --- |
| NCI-H2085 | 0.974 | 1.09 | 0.994 | 1.01 | 1.05 | 1 | 0.978 | 0.961 | 0.837 |
| NCI-H2087 | 0.956 | 1.18 | 0.821 | 1.01 | 1.01 | 0.957 | 0.968 | 0.818 | 0.483 |
| NCI-H2126 | 0.998 | 0.965 | 0.942 | 0.866 | 0.79 | 0.993 | 0.991 | 0.977 | 0.897 |
| NCI-H2170 | 0.99 | 0.994 | 0.945 | 0.964 | 0.64 | 0.97 | 1.01 | 0.995 | 0.925 |
| NCI-H2228 | 0.954 | 1.19 | 0.953 | 0.788 | 0.84 | 1.12 | 0.961 | 0.891 | 0.398 |
| NCI-H2342 | 1.07 | 0.944 | 0.84 | 0.945 | 0.765 | 0.957 | 0.932 | 1.02 | 0.761 |
| NCI-H2347 | 1.02 | 1.09 | 1 | 0.951 | 1.08 | 1.04 | 1 | 0.966 | 0.637 |
| NCI-H2405 | 1.01 | 0.938 | 0.942 | 0.964 | 0.947 | 0.962 | 1.02 | 0.964 | 0.726 |
| NCI-H3122 | 0.994 | 0.996 | 0.932 | 1.04 | 0.981 | 1 | 0.995 | 0.892 | 0.694 |
| PC-3 [JPC-3] | 1.05 | 1.06 | 1.08 | 1.17 | 1.08 | 1.08 | 1.03 | 0.95 | 0.818 |
